Structures are written as SMILES.

Assay [1] deals with BH4 levels in SK-N-BE (2) cells. Description: SKN-N-BE (2) cellular assay, BH4 levels by LC-MS. The following applies: Homo sapiens, SKNBE2, read-out: SK-N-BE(2) IC50, SK-N-BE (2) cells, BH4 levels by LC-MS. Type of assay: cell-based.
Assay [2] concerns the target SNAP-hSPR (sepiapterin reductase, SPR) (Homo sapiens, UniProt P35270). Description: biochemical. As to conditions: terbium labelled SNAP-hSPR / SSZ labelled SNAP-EGFP; read-out: hTR-FRET IC50. Type of assay: binding.

Sequence of SNAP-hSPR (sepiapterin reductase, SPR) (P35270 whole entry): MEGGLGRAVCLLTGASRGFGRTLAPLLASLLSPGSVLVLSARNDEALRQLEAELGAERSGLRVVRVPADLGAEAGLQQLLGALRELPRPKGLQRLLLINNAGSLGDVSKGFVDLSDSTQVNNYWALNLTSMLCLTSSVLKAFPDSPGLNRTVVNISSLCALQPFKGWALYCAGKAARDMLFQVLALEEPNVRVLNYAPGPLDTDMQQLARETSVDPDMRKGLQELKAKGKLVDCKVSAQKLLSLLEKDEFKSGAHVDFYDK

The term IC50 denotes the point on the concentration scale where inhibition reaches its midpoint. With `Cc1c(C(=O)N2CC(N3CC[C@@H](F)C3)C2)cnn1-c1nn2cccc2c(=O)[nH]1` [Q-1009], the IC50 in assay [1] is 2000 nM.

For `Cc1c(C(=O)N2CCC(CC(F)(F)F)C2)cnn1-c1nn2cccc2c(=O)[nH]1` (stereo not shown) [Q-0966], the IC50 in assay [1] came out at 1300 nM.

Take `Cc1c(C(=O)N2CCC(N3CC[C@@H](F)C3)C2)cnn1-c1nn2cccc2c(=O)[nH]1` (stereo partly shown) [Q-1010]: the IC50 in assay [1] was found to be 4000 nM.

For `Cc1c(C(=O)N2C3CCC2CN(c2ccccn2)C3)cnn1-c1nn2cccc2c(=O)[nH]1` [Q-0882], in assay [1], the IC50 was 200 nM.

As to `COCC1(C#N)CCN(C(=O)c2cnn(-c3nn4cccc4c(=O)[nH]3)c2C)CC1` [Q-0957], the IC50 in assay [1] was found to be 1000 nM.

As to `Cc1c(C(=O)N2CC(N3CCC[C@H](F)C3)C2)cnn1-c1nn2cccc2c(=O)[nH]1` [Q-1025], the IC50 in assay [1] turned out to be 1200 nM.

Turning to `Cc1c(C(=O)N2CCC(c3nnc4n3CCC4)CC2)cnn1-c1nn2cccc2c(=O)[nH]1` [Q-0983], the IC50 in assay [1] was 10000 nM.

In the case of `Cc1c(C(=O)N2CCN(C(C#N)c3cccs3)CC2)cnn1-c1nn2cccc2c(=O)[nH]1` (stereo not shown) [Q-0964], the IC50 in assay [1] was found to be 8900 nM.

With `Cc1c(C(=O)N2CCN(CCS(C)(=O)=O)CC2)cnn1-c1nn2cccc2c(=O)[nH]1` [Q-0901], in assay [1], the IC50 was found to be 10000 nM.

For the molecule `Cc1c(C(=O)N2CC(N3CC(O)(C(F)(F)F)C3)C2)cnn1-c1nn2cccc2c(=O)[nH]1` [Q-1032], the IC50 in assay [1] came out at 10000 nM.

As to `Cc1c(C(=O)N2CCC(N3CCC[C@H](F)C3)C2)cnn1-c1nn2cccc2c(=O)[nH]1` (stereo partly shown) [Q-1026], the IC50 in assay [1] turned out to be 1700 nM.

`Cc1c(C(=O)N2CCC3(CCN(CCC(F)(F)F)C3)CC2)cnn1-c1nn2cccc2c(=O)[nH]1` [Q-1018]: the IC50 in assay [1] was 700 nM.

Turning to `Cc1c(C(=O)N2CCC(N3CCC[C@@H]3C(F)(F)F)CC2)cnn1-c1nn2cccc2c(=O)[nH]1` [Q-1019], the IC50 in assay [1] is 400 nM.

Regarding `Cc1c(C(=O)N2CCn3ccnc3C2)cnn1-c1nn2cccc2c(=O)[nH]1` [Q-0866], in assay [1], the IC50 was 6700 nM.

With `Cc1c(C(=O)N2CCC23CC(F)(F)C3)cnn1-c1nn2cccc2c(=O)[nH]1` [Q-0900], the IC50 in assay [1] is 2300 nM.

As for `Cc1c(C(=O)N2CCN3CCC[C@@]3(C)C2)cnn1-c1nn2cccc2c(=O)[nH]1` [Q-0881], the IC50 in assay [1] is 2300 nM.

With `Cc1c(C(=O)N2CC3CC(C(F)(F)F)CC3C2)cnn1-c1nn2cccc2c(=O)[nH]1` (stereo not shown) [Q-0902], the IC50 in assay [1] amounted to 100 nM.

Turning to `Cc1ccc(OC2CC3CCC(C2)N3C(=O)c2cnn(-c3nn4cccc4c(=O)[nH]3)c2C)cc1` (stereo not shown) [Q-0974], in assay [1], the IC50 stood at 100 nM.

With `Cc1c(C(=O)N2[C@H](C)CN(C(=O)OC(C)(C)C)C[C@@H]2C)cnn1-c1nn2cccc2c(=O)[nH]1` [Q-0968], the IC50 in assay [1] came to 400 nM.

With `Cc1c(C(=O)N2C3CCC2CN(c2ccc(C#N)cc2)C3)cnn1-c1nn2cccc2c(=O)[nH]1` [Q-0869], the concentration for half-maximal inhibition (IC50) in assay [1] worked out at 100 nM.

For `Cc1c(C(=O)N2CC(N3CCC3)C2)cnn1-c1nn2cccc2c(=O)[nH]1` [Q-0985], the IC50 in assay [1] was 9200 nM.

Turning to `Cc1c(C(=O)N2CCC3CCC(=O)N(C4CC4)C3C2)cnn1-c1nn2cccc2c(=O)[nH]1` (stereo not shown) [Q-0954], in assay [1], the IC50 turned out to be 9000 nM.

For `Cc1c(C(=O)N2Cc3cc(C(F)(F)F)cnc3C2)cnn1-c1nn2cccc2c(=O)[nH]1` [Q-1004], in assay [1], the IC50 was determined as 3100 nM.

Consider `O=C(c1cnn(-c2nn3c(F)ccc3c(=O)[nH]2)c1C1CC1)N1CCC1` [Q-0863], for which, in assay [1], the IC50 turned out to be 600 nM.

Turning to `Cc1c(C(=O)N2CCC(C3(C#N)CCC3)CC2)cnn1-c1nn2cccc2c(=O)[nH]1` [Q-0999], in assay [1], the IC50 amounted to 200 nM.

`Cc1c(C(=O)N2CCC(F)(c3ccccn3)CC2)cnn1-c1nn2cccc2c(=O)[nH]1` [Q-0962]: the IC50 in assay [1] came to 300 nM.

`Cc1c(C(=O)N2C3CCC2CC(F)(c2ccc(Cl)cc2)C3)cnn1-c1nn2cccc2c(=O)[nH]1` (stereo not shown) [Q-1037]: the IC50 in assay [1] came out at 71 nM.

With `COC1(C2CC2)CCN(C(=O)c2cnn(-c3nn4cccc4c(=O)[nH]3)c2C)CC1` [Q-0938], the IC50 in assay [1] was found to be 100 nM.

As for `CCN1CC2CCC(C1)N2C(=O)c1cnn(-c2nn3cccc3c(=O)[nH]2)c1C` [Q-0884], in assay [1], the IC50 amounted to 200 nM.

On to `O=C(c1cn(-c2nn3cccc3c(=O)[nH]2)nc1Cl)N1CCC(C(F)(F)F)CC1` [Q-0991], for which the IC50 in assay [1] is 100 nM.

For `Cc1c(C(=O)N2CCC(C#N)CC2)cnn1-c1nn2cccc2c(=O)[nH]1` [Q-0883], the IC50 in assay [1] was determined as 1300 nM.

As for `Cc1c(C(=O)N2CCC(N3CCCC3=O)CC2)cnn1-c1nn2cccc2c(=O)[nH]1` [Q-0935], the IC50 in assay [1] is 1600 nM.

With `Cc1c(C(=O)N2CCN(CCC#N)CC2)cnn1-c1nn2cccc2c(=O)[nH]1` [Q-0895], the IC50 in assay [1] amounted to 1400 nM.

As for `Cc1c(C(=O)N2CCC[C@H](OCC(F)(F)F)C2)cnn1-c1nn2cccc2c(=O)[nH]1` [Q-1044], the IC50 in assay [1] was found to be 1000 nM.

As to `Cc1c(C(=O)N2CCN(C3CC4CCC3C4)CC2)cnn1-c1nn2cccc2c(=O)[nH]1` (stereo not shown) [Q-0933], the IC50 in assay [1] is 200 nM.

On to `Cc1c(C(=O)N2CCN(C(=O)OC(C)(C)C)CC2C)cnn1-c1nn2cccc2c(=O)[nH]1` (stereo not shown) [Q-0885], for which, in assay [1], the IC50 is 400 nM.

Turning to `Cc1c(C(=O)N2CC[C@H](OCc3cnc(Cl)s3)C2)cnn1-c1nn2cccc2c(=O)[nH]1` [Q-0997], the IC50 in assay [1] worked out at 1000 nM.

As to `Cc1c(C(=O)N2CCCC(c3n[nH]c(C4CC4)n3)C2)cnn1-c1nn2cccc2c(=O)[nH]1` (stereo not shown) [Q-0955], in assay [1], the IC50 was 10000 nM.

Regarding `Cc1c(C(=O)N2CC3CC2C[C@@H]3C#N)cnn1-c1nn2cccc2c(=O)[nH]1` (stereo partly shown) [Q-1001], the IC50 in assay [1] worked out at 1800 nM.

Turning to `Cc1c(C(=O)N2CCCCC2C(F)(F)F)cnn1-c1nn2cccc2c(=O)[nH]1` (stereo not shown) [Q-0920], the IC50 in assay [1] is 500 nM.

For `Cc1c(C(=O)N2CCC(N3CCC[C@@H](F)C3)C2)cnn1-c1nn2cccc2c(=O)[nH]1` (stereo partly shown) [Q-1016], the IC50 in assay [1] came out at 2400 nM.

Consider `Cc1c(C(=O)N2C3CCC2CN(c2ccc(C#N)cn2)C3)cnn1-c1nn2cccc2c(=O)[nH]1` [Q-0877], for which the IC50 in assay [1] was found to be 200 nM.

Take `Cc1c(C(=O)N2CCN3C(=O)CC[C@H]3C2)cnn1-c1nn2cccc2c(=O)[nH]1` [Q-0872]: in assay [1], the IC50 turned out to be 10000 nM.

On to `Cc1c(C(=O)N2CC(C(F)(F)F)CC(C(F)(F)F)C2)cnn1-c1nn2cccc2c(=O)[nH]1` (stereo not shown) [Q-0967], for which the IC50 in assay [1] came to 1900 nM.

On to `Cc1c(C(=O)N2CCC(C(F)(F)F)CC2)cnn1-c1nn2cccc2c(=O)[nH]1` [Q-0533], for which the IC50 in assay [1] came out at 69 nM.

Turning to `Cc1c(C(N2CCC(C(F)(F)F)CC2)C(F)(F)F)cnn1-c1nc2c(c(=O)[nH]1)CCC2` (stereo not shown) [Q-0503, 2-(5-methyl-4-{2,2,2-trifluoro-1-[4-(trifluoromethyl)piperidin-1-yl]ethyl}-1H-pyrazol-1-yl)-3H,4H,5H,6H,7H-cyclopenta[d]pyrimidin-4-one], the IC50 in assay [2] turned out to be 4000 nM.

As for `Cc1c(C(=O)N2CCN(CC(F)(F)F)CC2)cnn1-c1nc2[nH]ncc2c(=O)[nH]1` [Q-1296], the IC50 in assay [2] was 600 nM.

`Cc1c(C(=O)N2CCC(S(=O)(=O)c3ccccc3)CC2)cnn1-c1nn2cccc2c(=O)[nH]1` [Q-1984]: in assay [2], the IC50 amounted to 1 nM.

Turning to `Cc1c(C(=O)O)cnn1-c1nc2ccsc2c(=O)[nH]1` [Q-0541], in assay [2], the IC50 turned out to be 200 nM.

Turning to `O=C(c1cnn(-c2cc3nccn3c(=O)[nH]2)c1)N1CCC(C(F)(F)F)CC1` [Q-0452], the IC50 in assay [2] worked out at 800 nM.

Take `Cc1c(C(=O)N2CC(c3ccncc3F)C2)cnn1-c1nn2cccc2c(=O)[nH]1` [Q-2043]: the IC50 in assay [2] came to 5 nM.

As to `Cc1c(C(=O)N2CCN(S(=O)(=O)c3cc(C(F)(F)F)cc(C(F)(F)F)c3)CC2)cnn1-c1nn2cccc2c(=O)[nH]1` [Q-1835], in assay [2], the IC50 was 4 nM.

Turning to `CCn1ccc2c(=O)[nH]c(-n3ncc(C(=O)N4CC5(C4)CC(F)(F)C5)c3C)nc21` [Q-1313], the IC50 in assay [2] amounted to 5000 nM.

With `CCC1Cc2ccccc2N1C(=O)c1cnn(-c2nc(C)cc(=O)[nH]2)c1C` (stereo not shown) [Q-0420], the IC50 in assay [2] turned out to be 7 nM.

As to `Cc1c(C(=O)N2CCN(S(=O)(=O)c3ccc(C(F)(F)F)cc3)CC2)cnn1-c1nn2cccc2c(=O)[nH]1` [Q-1834], in assay [2], the IC50 was 1 nM.

In the case of `Cc1c(C(=O)N2CCN(S(=O)(=O)c3cccc4c(N(C)C)cccc34)CC2)cnn1-c1nn2cccc2c(=O)[nH]1` [Q-1815], the IC50 in assay [2] turned out to be 2 nM.

As for `Cc1cc(-c2cnn(CCC(=O)N3CCc4ccccc4C3)c2)[nH]c(=O)n1` (single isomer, unassigned) [Q-0292, 4-methyl-6-{1-[3-oxo-3-(1,2,3,4-tetrahydroisoquinolin-2-yl)propyl]-1H-pyrazol-4-yl}-1,2-dihydropyrimidin-2-one], the IC50 in assay [2] turned out to be 40000 nM.

`Cc1c(C(=O)N2CCN(S(=O)(=O)c3cc(Cl)ccc3Cl)CC2)cnn1-c1nn2cccc2c(=O)[nH]1` [Q-1825]: in assay [2], the IC50 stood at 2 nM.

`Cc1c(C(=O)N2CC3(C2)CC(F)(F)C3)cnn1-c1nc2[nH]ncc2c(=O)[nH]1` [Q-1295]: the IC50 in assay [2] is 2400 nM.

With `Cc1cc(=O)[nH]c(-n2ncc(C(=O)NCCc3ccc(F)cc3)c2C)n1` [Q-0007], the IC50 in assay [2] was 100 nM.

In the case of `Cc1cc(=O)[nH]c(-n2ncc(C(=O)O)c2C)n1` [Q-0290], the IC50 in assay [2] was found to be 2000 nM.

Take `Cc1c(C(=O)N2CCC(C(F)(F)F)CC2)cnn1-c1nc2nc[nH]c2c(=O)[nH]1` [Q-0448]: the IC50 in assay [2] came to 1500 nM.

On to `Cc1c(C(=O)N2CCC(c3nc(C(N)=O)cs3)CC2)cnn1-c1nn2cccc2c(=O)[nH]1` [Q-1090], for which the IC50 in assay [2] came out at 1 nM.

For the molecule `Cc1cc(=O)[nH]c(-n2ncc(C(=O)N3CCc4ccc(C#N)cc4C3)c2C)n1` [Q-0286], in assay [2], the IC50 was determined as 10 nM.

As to `CNC(=O)c1cnn(-c2nc(C)cc(=O)[nH]2)c1C` [Q-0316], the IC50 in assay [2] was 300 nM.

Regarding `COc1ccccc1NC(=O)c1cnn(-c2nc(C)cc(=O)[nH]2)c1C` [Q-0004], the IC50 in assay [2] stood at 70 nM.

Turning to `Cc1c(C(=O)N2CCN(S(=O)(=O)c3ccc(Cl)c4nonc34)CC2)cnn1-c1nn2cccc2c(=O)[nH]1` [Q-1885], the IC50 in assay [2] was found to be 10 nM.

As to `O=c1[nH]c(-c2cc(Br)ccn2)nc2ccsc12` [Q-0540], the IC50 in assay [2] came to 300 nM.

Take `Cc1cc(=O)[nH]c(-c2c(C)nn(CCC(=O)N3CCc4ccccc4C3)c2C)n1` [Q-0284]: the IC50 in assay [2] was found to be 2900 nM.

As to `Cc1c(C(=O)N2CC3(C2)CC(F)(F)C3)cnn1-c1nc2c(ccn2C)c(=O)[nH]1` [Q-1306], in assay [2], the IC50 was 500 nM.
